{"source": "ChEMBL document CHEMBL4020779", "about": "“Thio-functionalized carbohydrate thiosemicarbazones and evaluation of their anticancer activity” (Bioorg Med Chem Lett, 2017)", "key": {"LoVo [1]": {"system": "LoVo", "assay": "Induction of apoptosis in human LoVo cells assessed as necrotic cells at 426 uM after 24 hrs by Annexin-V-FITC/propidium iodide staining-based flow cytometric analysis (reference value: 2.9%)", "type": "functional"}, "A2780 [2]": {"system": "A2780", "assay": "Induction of oxidative stress in human A2780 cells assessed as increase in ROS level in cytoplasm at IC50 after 1 hr by H2DCF-DA probe based fluorescence assay", "type": "functional, cell-based"}, "A2780 [3]": {"system": "A2780", "assay": "Induction of oxidative stress in human A2780 cells assessed as increase in ROS level in cytoplasm at IC20 after 1 hr by H2DCF-DA probe based fluorescence assay", "type": "functional, cell-based"}, "LoVo [4]": {"system": "LoVo", "assay": "Induction of DNA fragmentation in human LoVo cells assessed as viable cells at 460.6 uM after 24 hrs by BrdU/FITC staining-based TUNEL assay (reference value: 99.2%)", "type": "functional", "conditions": "read-out: Activity"}, "HeLa [5]": {"system": "HeLa", "assay": "Cytotoxicity against human HeLa cells after 72 hrs by CCK8 assay", "type": "functional, cell-based"}, "LoVo [6]": {"system": "LoVo", "assay": "Induction of DNA fragmentation in human LoVo cells assessed as viable cells at 0.115 uM after 24 hrs by BrdU/FITC staining-based TUNEL assay (reference value: 99.2%)", "type": "functional", "conditions": "read-out: Activity"}, "A2780 [7]": {"system": "A2780", "assay": "Induction of apoptosis in human A2780 cells assessed as necrotic cells at 460.6 uM after 24 hrs by Annexin-V-FITC/propidium iodide staining-based flow cytometric analysis (reference value: 4.1%)", "type": "functional"}, "A2780 [8]": {"system": "A2780", "assay": "Induction of DNA fragmentation in human A2780 cells assessed as viable cells at 0.115 uM after 24 hrs by BrdU/FITC staining-based TUNEL assay (reference value: 96.1%)", "type": "functional", "conditions": "A2780, 24 h, read-out: Activity"}, "LoVo [9]": {"system": "LoVo", "assay": "Induction of apoptosis in human LoVo cells assessed as apoptotic cells at 426 uM after 24 hrs by Annexin-V-FITC/propidium iodide staining-based flow cytometric analysis (reference value: 7.9%)", "type": "functional"}, "A2780 [10]": {"system": "A2780", "assay": "Induction of DNA fragmentation in human A2780 cells assessed as apoptotic cells at 0.115 uM after 24 hrs by BrdU/FITC staining-based TUNEL assay (reference value: 3.9%)", "type": "functional"}, "A2780 [11]": {"system": "A2780", "assay": "Induction of DNA fragmentation in human A2780 cells assessed as apoptotic cells at 460.6 uM after 24 hrs by BrdU/FITC staining-based TUNEL assay (reference value: 3.9%)", "type": "functional"}, "LoVo [12]": {"system": "LoVo", "assay": "Cytotoxicity against human LoVo cells after 72 hrs by CCK8 assay", "type": "functional, cell-based"}, "LoVo [13]": {"system": "LoVo", "assay": "Induction of DNA fragmentation in human LoVo cells assessed as apoptotic cells at 460.6 uM after 24 hrs by BrdU/FITC staining-based TUNEL assay (reference value: 0.8%)", "type": "functional"}, "MCF7 [14]": {"system": "MCF7", "assay": "Cytotoxicity against human MCF7 cells after 72 hrs by CCK8 assay", "type": "functional, cell-based", "conditions": "MCF7, 72 h"}, "LoVo [15]": {"system": "LoVo", "assay": "Genotoxicity in human LoVo cells assessed as induction of DNA damage at 500 uM after 1 hr under alkaline condition by comet assay relative to control", "type": "functional"}, "A2780 [16]": {"system": "A2780", "assay": "Induction of apoptosis in human A2780 cells assessed as necrotic cells at 0.115 uM after 24 hrs by Annexin-V-FITC/propidium iodide staining-based flow cytometric analysis (reference value: 4.1%)", "type": "functional"}, "A2780 [17]": {"system": "A2780", "assay": "Induction of apoptosis in human A2780 cells assessed as viable cells at 0.115 uM after 24 hrs by Annexin-V-FITC/propidium iodide staining-based flow cytometric analysis (reference value: 93.9%)", "type": "functional", "conditions": "A2780, 24 h, read-out: Activity"}, "A2780 [18]": {"system": "A2780", "assay": "Induction of apoptosis in human A2780 cells assessed as viable cells at 460.6 uM after 24 hrs by Annexin-V-FITC/propidium iodide staining-based flow cytometric analysis (reference value: 93.9%)", "type": "functional", "conditions": "A2780, 24 h, read-out: Activity"}, "LoVo [19]": {"system": "LoVo", "assay": "Induction of apoptosis in human LoVo cells assessed as apoptotic cells at 0.106 uM after 24 hrs by Annexin-V-FITC/propidium iodide staining-based flow cytometric analysis (reference value: 7.9%)", "type": "functional"}, "A2780 [20]": {"system": "A2780", "assay": "Induction of apoptosis in human A2780 cells assessed as apoptotic cells at 0.115 uM after 24 hrs by Annexin-V-FITC/propidium iodide staining-based flow cytometric analysis (reference value: 2%)", "type": "functional"}, "A2780 [21]": {"system": "A2780", "assay": "Induction of DNA fragmentation in human A2780 cells assessed as viable cells at 460.6 uM after 24 hrs by BrdU/FITC staining-based TUNEL assay (reference value: 96.1%)", "type": "functional", "conditions": "A2780, 24 h, read-out: Activity"}, "LoVo [22]": {"system": "LoVo", "assay": "Induction of DNA fragmentation in human LoVo cells assessed as apoptotic cells at 0.115 uM after 24 hrs by BrdU/FITC staining-based TUNEL assay (reference value: 0.8%)", "type": "functional"}, "LoVo [23]": {"system": "LoVo", "assay": "Induction of apoptosis in human LoVo cells assessed as necrotic cells at 0.106 uM after 24 hrs by Annexin-V-FITC/propidium iodide staining-based flow cytometric analysis (reference value: 2.9%)", "type": "functional"}, "A2780 [24]": {"system": "A2780", "assay": "Induction of apoptosis in human A2780 cells assessed as apoptotic cells at 460.6 uM after 24 hrs by Annexin-V-FITC/propidium iodide staining-based flow cytometric analysis (reference value: 2%)", "type": "functional"}, "A2780 [25]": {"system": "A2780", "assay": "Genotoxicity in human A2780 cells assessed as induction of DNA damage at 500 uM after 1 hr under alkaline condition by comet assay relative to control", "type": "functional"}, "M059J [26]": {"system": "M059J", "assay": "Genotoxicity in human M059J cells assessed as induction of DNA damage at 500 uM after 1 hr under alkaline condition by comet assay relative to control", "type": "functional"}, "A2780 [27]": {"system": "A2780", "assay": "Cytotoxicity against human A2780 cells after 72 hrs by CCK8 assay", "type": "functional, cell-based", "conditions": "A2780, 72 h"}, "LoVo [28]": {"system": "LoVo", "assay": "Induction of apoptosis in human LoVo cells assessed as viable cells at 426 uM after 24 hrs by Annexin-V-FITC/propidium iodide staining-based flow cytometric analysis (reference value: 89.7%)", "type": "functional", "conditions": "read-out: Activity"}, "M059J [29]": {"system": "M059J", "assay": "Cytotoxicity against human M059J cells after 72 hrs by CCK8 assay", "type": "functional, cell-based"}, "LoVo [30]": {"system": "LoVo", "assay": "Induction of apoptosis in human LoVo cells assessed as viable cells at 0.106 uM after 24 hrs by Annexin-V-FITC/propidium iodide staining-based flow cytometric analysis (reference value: 89.7%)", "type": "functional", "conditions": "read-out: Activity"}, "MCF7 [31]": {"system": "MCF7", "assay": "Genotoxicity in human MCF7 cells assessed as induction of DNA damage at 500 uM after 1 hr under alkaline condition by comet assay relative to control", "type": "functional"}, "HeLa [32]": {"system": "HeLa", "assay": "Genotoxicity in human HeLa cells assessed as induction of DNA damage at 500 uM after 1 hr under alkaline condition by comet assay relative to control", "type": "functional"}}, "note": "Active and inactive are the calls of the source. The rule behind the calls is not given here."}
{"compound": "CC(=O)OC[C@H]1O[C@@H](O[C@H]2[C@H](OC(C)=O)[C@@H](OC(C)=O)[C@H](S[C@@H]3CC(=O)[C@@H]4OC[C@H]3O4)O[C@@H]2COC(C)=O)[C@H](OC(C)=O)[C@@H](OC(C)=O)[C@H]1OC(C)=O", "values": [{"measurement": "Activity", "setting": "LoVo [1]", "value": 12.6, "unit": "%"}, {"measurement": "Activity", "setting": "A2780 [2]", "value": "inactive"}, {"measurement": "Activity", "setting": "A2780 [3]", "value": "inactive"}, {"measurement": "viability at 460.6 µM", "setting": "LoVo [4]", "value": 90.6, "unit": "%"}, {"measurement": "IC50", "setting": "HeLa [5]", "value": 875, "unit": "µM"}, {"measurement": "viability at 0.115 µM", "setting": "LoVo [6]", "value": 96.7, "unit": "%"}, {"measurement": "Activity", "setting": "A2780 [7]", "value": 5.7, "unit": "%"}, {"measurement": "viability at 0.115 µM", "setting": "A2780 [8]", "value": 85.5, "unit": "%"}, {"measurement": "Activity", "setting": "LoVo [9]", "value": 16.3, "unit": "%"}, {"measurement": "Activity", "setting": "A2780 [10]", "value": 15.5, "unit": "%"}, {"measurement": "Activity", "setting": "A2780 [11]", "value": 41, "unit": "%"}, {"measurement": "IC20", "setting": "LoVo [12]", "value": 106, "unit": "µM"}, {"measurement": "IC50", "setting": "LoVo [12]", "value": 426, "unit": "µM"}, {"measurement": "Activity", "setting": "LoVo [13]", "value": 9.4, "unit": "%"}, {"measurement": "IC50", "setting": "MCF7 [14]", "value": 913, "unit": "µM"}, {"measurement": "Activity", "setting": "LoVo [15]", "value": "10 - 20%"}, {"measurement": "Activity", "setting": "A2780 [16]", "value": 1.4, "unit": "%"}, {"measurement": "viability at 0.115 µM", "setting": "A2780 [17]", "value": 91.6, "unit": "%"}, {"measurement": "viability at 460.6 µM", "setting": "A2780 [18]", "value": 71.4, "unit": "%"}, {"measurement": "Activity", "setting": "LoVo [19]", "value": 12.5, "unit": "%"}, {"measurement": "Activity", "setting": "A2780 [20]", "value": 7, "unit": "%"}, {"measurement": "viability at 460.6 µM", "setting": "A2780 [21]", "value": 59, "unit": "%"}, {"measurement": "Activity", "setting": "LoVo [22]", "value": 6.3, "unit": "%"}, {"measurement": "Activity", "setting": "LoVo [23]", "value": 5.5, "unit": "%"}, {"measurement": "Activity", "setting": "A2780 [24]", "value": 22.9, "unit": "%"}, {"measurement": "Activity", "setting": "A2780 [25]", "value": "<10", "unit": "%"}, {"measurement": "Activity", "setting": "M059J [26]", "value": "<10", "unit": "%"}, {"measurement": "IC20", "setting": "A2780 [27]", "value": 115, "unit": "nM"}, {"measurement": "IC50", "setting": "A2780 [27]", "value": 461, "unit": "µM"}, {"measurement": "viability at 426 µM", "setting": "LoVo [28]", "value": 71.2, "unit": "%"}, {"measurement": "IC50", "setting": "M059J [29]", "value": 827, "unit": "µM"}, {"measurement": "viability at 0.106 µM", "setting": "LoVo [30]", "value": 82, "unit": "%"}, {"measurement": "Activity", "setting": "MCF7 [31]", "value": "<10", "unit": "%"}, {"measurement": "Activity", "setting": "HeLa [32]", "value": "<10", "unit": "%"}]}
